Assay results reported in patent US6395787B1, “Ocular hypotensive lipids” (Allergan Sales, Inc., priority 2000, dated 2002).

Legend:
[1] = test system: isolated rat aorta (TP receptor preparation); test: Isolated rat aorta contraction; conditions: 10^−6 and 10^−5 M
Procedure: (§1) Smooth muscle tension of isolated tissues was measured isometrically with force displacement transducers (Grass FT-03) and recorded on Grass Polygraphs (Models 7G and 79E). The organ baths contained Krebs solution maintained at 37° C. and gassed with 95% 02/5% CO2 to give a pH of 7.4. The Krebs solution had the following composition (mM): NaCl, 118.0; KCl, 4.7; KH2PO4, 1.2; CaCl2, 1.9; MgSO4, 1.18; NaHCO3, 25.0; glucose, 11.7; indomethacin, 0.001.
Adult Sprague Dawley rats weighing 180-220 grams were anesthetized by CO2 inhalation and then decapitated and exsanguinated. The thoracic aorta was removed and cleaned of any adhering tissue. The lumen was flushed to remove any blood. The aorta was dissected into three small segments of 5-8 mm length. Each segment was mounted under 2 g of tension in a jacketed 10 ml organ bath with the aid of two wire hooks placed through the lumen of the vessel. This arrangement allowed for measurement of contraction forces developed by the circular smooth muscle. The tissues were allowed to equilibrate for 1 hour before compounds were added cumulatively to the organ baths. The response to 10^−7 M U-46619 (a thromboxane mimetic) was determined at the beginning and end of each experiment as a reference. A 30-45 minute recovery period was allowed after complete wash-out of drug. Only one test compound was examined in each tissue.

[2] = test system: rabbit jugular vein segment; test: Vasorelaxation of histamine precontracted rabbit jugular vein segment
Procedure: as §1
New Zealand albino rabbit of either sex, weighing 2-4 kg, were injected with 1000 U heparin into the marginal ear vein and then sacrificed by CO2 gas. The external jugular veins were cleared of fat and adherent connective tissue and removed. The veins were transected and each ring of 3-4 mm length was suspended between two metal hooks in a jacketed organ bath. The tissues were equilibrated for 1 hr under 0.75 g tension, which was readjusted as the tissues relaxed. Single doses of histamine, 10^−5 M then 2-3×10^−6 M, with washing after each dose, were given to contract the tissue and establish responsiveness. The TP-receptor antagonist SQ29548, (Ogletree et al. (1985) J. Pharmacol. Exp. Ther. 234 435-441) at (10^−6 M), was applied for 5 min and then histamine 2-3×10^−6 M was added to elicit the contractile response. After 30 min of pretreatment with the histamine, the relaxant response was tested by adding cumulative doses of the test compounds with 10^−8 M to 10^−7 M PGE2 at the end of each dose-response curve as a reference. A recovery period of 30-50 min was allowed after wash-out of the tissues. Relaxant activity was calculated as % of the control tone elicited by histamine.

[3] = test system: dog pupil diameter; test: Dog pupil diameter; type: in vivo; conditions: 0.1%; for Pupil diameter (mm), test eye: n = 6
Procedure: Dog pupil diameter was measured using an optistick (a mm ruler which included half-circle references of standard widths (mm) for reference. Gently restraining the dog by hand, pupil diameter was determined by matching a half-circle to the pupil in normal room light. In dogs with very dark pupils a specialized penlight was used, but only very briefly to avoid pupil constriction. Pupil diameter was measured at the same time as IOP and hyperemia.

[4] = target: human FP receptor (Homo sapiens, UniProt P43088); test: Total inositol phosphate accumulation, HEK-293 cells with recombinant human FP receptor; type: cell-based; parameters: expressed in transfected cells; conditions: for % maximal total inositol phosphate accumulation mean χ ± SEM: reference 17-phenyl PGF2α 10^−6 M
Procedure: HEK-293 cells were grown in DMEM with 10% fetal bovine serum (FBS), 250 μg ml^−1 G418 (Life Technologies) and 200 μg ml^−1 gentamicin or penicillin/streptomycin. […] For transfection, the cells were grown to 50-60% confluency on 10 cm plates. The plasmid pCEP4 incorporating cDNA inserts for the human FP receptor (20 μg) was added to 500 μl of 250 mM CaCl2. HEPES buffered saline×2 (2×HBSS, 280 mM NaCl, 20 mM HEPES acid, 1.5 mM Na2 HPO4, pH 7.05-7.12) was then added dropwise to a […], with continuous vortexing at room temperature. After 30 min, 9 ml DMEM were added to the mixture. The DNA/DMEM/calcium phosphate mixture was then added to the cells, which had been previously rinsed with 10 ml phosphate buffered saline (PBS). The cells were then incubated for 5 h. at 37° C. in humidified 95% air/5% CO2. The calcium phosphate solution was then removed and the cells were treated with 10% glycerol in DMEM for 2 min. The glycerol solution was then replaced by DMEM with 10% fetal bovine serum (FBS). The cells were incubated overnight and the medium was replaced by DMEM/10% FBS containing 250 μg ml^−1 G418 and penicillin/streptomycin. The following day hygromycin B was added to a final concentration of 200 μg ml^−1.
Receptor-mediated phosphoinositide (PI) hydrolysis was determined by measuring the accumulation of total inositol phosphates (IP) in cells preincubated with ^3H-myoinositol. Stable cell lines of HEK 293 cells expressing human or cat FP receptors were plated in 10 cm dishes (10^6 cells per dish in DMEM with 10% FBS). The following day, the cells were incubated with 18 μCi myo-[2 ^3H] inositol (Amersham; […]) in 6 ml of DMEM with 10% FBS for 24 hours at 37° C. The cells were then rinsed twice with phosphate buffered saline (PBS), incubated for 5 min with 1 ml of trypsin-EDTA, and suspended in 10 ml DMEM containing 25 mM HEPES buffer. Cells were pelleted at 1000 rpm and resuspended in DMEM/25 mM HEPES containing 10 mM LiCl for 10 minutes. Aliquots of 200 μl cell suspension were incubated with 50 μl drug for 30 minutes at 37° C. (duplicate determination), and agonist stimulation was terminated with a 750 μl mixture of chloroform:methanol:4N HCl (100:200:2), followed by addition of 250 μl of chloroform and 0.5 N HCl for extraction of inositol phosphates. A 750 μl volume of the aqueous layer was loaded on columns packed with 0.5 ml of Dowex AG 1-X8 anion-exchange resin (formate form, 100-200 mesh; BioRad) to separate radiolabeled components. The elution procedure consisted of three 3 ml washes with 5 mM inositol, then two elutions with 750 μl of 1.3 M ammonium formate with 0.1 M formic acid. The eluate was mixed with 10 ml Aquasol scintillation fluid (Packard Instrument Co.) and total [^3H] inositol phosphates was determined by a liquid scintillation counter.

human FP receptor, sequence (P43088 whole entry): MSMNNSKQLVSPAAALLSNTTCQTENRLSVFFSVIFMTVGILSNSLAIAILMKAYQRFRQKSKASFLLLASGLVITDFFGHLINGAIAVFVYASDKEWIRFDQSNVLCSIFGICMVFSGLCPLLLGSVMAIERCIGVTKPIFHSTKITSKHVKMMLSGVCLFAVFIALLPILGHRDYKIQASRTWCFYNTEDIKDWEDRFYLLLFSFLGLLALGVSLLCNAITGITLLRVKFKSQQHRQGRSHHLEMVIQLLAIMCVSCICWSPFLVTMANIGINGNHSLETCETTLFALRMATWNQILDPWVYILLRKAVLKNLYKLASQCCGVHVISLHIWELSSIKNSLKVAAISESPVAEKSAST

With `CCCCC[C@H](O)/C=C/[C@@H]1[C@@H](C/C=C\CCCC(=O)NCCO)[C@@H](O)C[C@H]1O` [PGF2α 1-ethanolamide, (5Z,8α,9α,11α,13E,15S)-9,11,15-trihydroxy-N-(2-hydroxyethyL)prosta-5,13-dien-1-amide] the “effect on the isolated rat aorta” value [1] was “Residual activity occurred at high doses”, the EC50 ([2]; Oryctolagus cuniculus, histamine precontracted, read-out: E.C.50, vasorelaxation of the precontracted rabbit jugular vein segment) was 2000 nM and the endothelium dependent vasorelaxation ([2]; histamine precontracted rabbit jugular vein segment) was “relatively little activity”. For the same molecule, the “Pupil diameter (mm), test eye” value ([3]; 0 HR (baseline)) was 6.7 ± 0.2 mm, the “Pupil diameter (mm), test eye” value ([3]; 2 HR) was 1.0 ± 0.4 mm and the “Pupil diameter (mm), test eye” value ([3]; 4 HR) was 1.0 ± 0.3 mm. For the same molecule, the “Pupil diameter (mm), test eye” value ([3]; 6 HR) was 1.5 ± 0.4 mm, the “Pupil diameter (mm), test eye” value ([3]; 24 HR) was 7.0 ± 0.3 mm and the miosis ([3]; topical) was “marked miosis”. For the same molecule, the “% maximal total inositol phosphate accumulation mean χ ± SEM” value ([4]; 10^−5 M) was 85.0 ± 1.9%, the “% maximal total inositol phosphate accumulation mean χ ± SEM” value ([4]; 10^−6 M) was 48.4 ± 3.3% and the “% maximal total inositol phosphate accumulation mean χ ± SEM” value ([4]; 10^−7 M) was 10.0 ± 1.6%. For the same molecule, the “% maximal total inositol phosphate accumulation mean χ ± SEM” value ([4]; 10^−8 M) was 0.3 ± 0.6% and the EC50 ([4]; HEK-293 cells, recombinant human FP receptor, read-out: E.C.50, total inositol phosphate accumulation) was 1000 nM.
